Results from article PMC9369442, “Synthetic Peucedanocoumarin IV Prevents α-Synuclein Neurotoxicity in an Animal Model of Parkinson’s Disease” (International Journal of Molecular Sciences, 2022).

What was measured:
[1] = tested on: SH-SY5Y cells with Tet-Off conditional expression of β23; test: Trypan blue exclusion cell viability assay, Tet-Off β23 expression; format: cell-based; conditions: 1 μM, 24 h
Experimental: Figure 1 Peucedanocoumarin IV (PCiv) inhibits β23 aggregations and cytotoxicity in SH-SY5Y cells. (A) Scheme showing the detailed experimental steps in the organic synthesis of racemic PCiv and racemic PCiii (rac-PCiii, and rac-PCiv). Both PCiii and PCiv used in this study are racemic forms. (B) Trypan blue exclusion cell viability assessment in SH-SY5Y cells with Tet-Off-induced β23 expressions. β23 was expressed for 24 h using the Tet-off system. Further expression of β23 was halted by doxycycline (Dox) treatment with simultaneous treatment of the PCiii, PCiv, or their synthetic intermediate, trans-khellatone (t-khellatone, 1 μM 24 h). Cell viability was assessed 24 h after doxycycline treatment (n = 5 per group). (C) Synthetic PCiv’s protective effect on Tet-Off-expressed β23 toxicity in SH-SY5Y cells compared with peucedanocoumarin III (PCiii) determined by trypan blue exclusion assay. (D) The degradation of β23 monitored by Western blot at 37 h after doxycycline (200 ng/mL) treatment. The representative Western blot image of HA (β23) in SH-SY5Y cells treated with synthetic PCiii, synthetic PCiv (1 μM, 37 h), or DMSO as a vehicle. (E) Quantification of HA (β23) expression in SH-SY5Y cells from the indicated experimental groups in panel D (n = 3 experiments per group). (F) Representative immunofluorescence of steady state HA (β23) expression in SH-SY5Y cells expressing Tet-Off regulatable reporter mCherry and HA-tagged β23. HA-β23 was expressed for 24 h using the Tet-off system. Further expression of β23 was halted by Dox treatment in the presence of PCiii or PCiv (1 μM, 37 h). (G) Quantification of HA (β23) immunofluorescence signal in mCherry positive SH-SY5Y cells in each experimental group (n = 32 cells from three separate experiments per group). The data are expressed as means ± SEMs. * p < 0.05, ** p < 0.01, *** p < 0.001, and **** p < 0.0001, ANOVA test followed by Tukey’s post hoc analysis. Two-way ANOVA was used in panel C.
Human neuroblastoma SH-SY5Y cells (ATCC, Manassas, VA, USA) were grown in complete media containing DMEMs, 10% fetal bovine serum (vol/vol), and antibiotics (penicillin-streptomycin 100 U/mL, Thermo Fisher Scientific, Waltham, MA, USA). The atmospheric condition used to preserve the cells consisted of 5% CO2/95% air at 37 °C and maintained a humidified environment. X-tremeGENE HP transfection reagents (Roche, Basel, Switzerland) were used for transient transfection of DNA constructs (pCMV-tTA, TetP-β23, and pTet-dual2 [5]) following the manufacturer’s instructions.
SH-SY5Y cells were plated in 12-well plates at a density of 0.2 × 10^6 cells per well. Following transient transfection with the indicated constructs and subsequent treatment protocol, the cells were harvested by trypsinization, thereby yielding single-cell suspensions. The cells were washed twice with phosphate-buffered saline (PBS) and resuspended in serum-free DMEM. The resuspended cells were mixed with an equal volume of 0.4% trypan blue (w/v) and incubated for 2 min at room temperature. Live and dead cells were counted using a Countess II Automated Cell Counter (Life Technologies, Carlsbad, CA, USA) for assessing cell viability.

recombinant α-synuclein = target: T1, recombinant α-synuclein (Homo sapiens, UniProt P37840); test: In vitro recombinant α-synuclein aggregation, Western blot; format: biochemical; conditions: 100 μM, 37 °C, 3 or 5 days
T1 construct: made in house; host or cells: Escherichia coli BL21
Experimental: Figure 2 PCiv prevents α-synuclein aggregation in vitro and in cultured neurons with PFF treatment. (A) Representative Western blots showing the degree of recombinant α-synuclein (αSyn) aggregation in a test tube in the presence or absence of PCiv (100 μM) at the indicated incubation duration (phosphate-buffered saline [PBS], 37 °C for 3 or 5 days). Aggregation of α-synuclein was determined using α-synuclein antibody. (B) Quantification of the relative amount of α-synuclein aggregate in high molecular weight sizes in panel A (n = 3 per group). […] (D) Quantification of pS129-αSyn immunofluorescence signal intensities in MAP2-positive cortical neurons in each experimental group (n = 15 cells from three separate experiments). (E) Cell viability assessment in the indicated experimental groups was monitored by CCK-8 assay (n = 3 per group). The data are expressed as means ± SEMs. * p < 0.05, ** p < 0.01, *** p < 0.001, and **** p < 0.0001, ANOVA test followed by Tukey’s post hoc analysis. […]
(A) Representative Western blots showing the degree of recombinant α-synuclein (αSyn) aggregation in a test tube in the presence or absence of t-Khellatone, PCiii, and PCiv (100 μM) at 0 and 5 days of incubation (phosphate-buffered saline [PBS], 37 °C for 5 days). Aggregation of α-synuclein was determined using α- synuclein antibody. […]

CC1(C)Oc2ccc3ccc(=O)oc3c2C(O)C1O (stereo not drawn) [trans-khellatone, reference compound]
effect on β23-induced cytotoxicity [1]: no effect | aggregation of recombinant α-synuclein into high molecular weight species (recombinant α-synuclein): failed to prevent
